Earlier results in PMC8583936, “Machine Learning Assisted Approach for Finding Novel High Activity Agonists of Human Ectopic Olfactory Receptors” (International Journal of Molecular Sciences, 2021).
Like-named read-outs stand apart in the source and are kept apart here.

Experiments:
[1] = target: T1, OR2W1 (Homo sapiens, UniProt Q9Y3N9); details: cited from earlier work
T1 sequence (Q9Y3N9 1-320): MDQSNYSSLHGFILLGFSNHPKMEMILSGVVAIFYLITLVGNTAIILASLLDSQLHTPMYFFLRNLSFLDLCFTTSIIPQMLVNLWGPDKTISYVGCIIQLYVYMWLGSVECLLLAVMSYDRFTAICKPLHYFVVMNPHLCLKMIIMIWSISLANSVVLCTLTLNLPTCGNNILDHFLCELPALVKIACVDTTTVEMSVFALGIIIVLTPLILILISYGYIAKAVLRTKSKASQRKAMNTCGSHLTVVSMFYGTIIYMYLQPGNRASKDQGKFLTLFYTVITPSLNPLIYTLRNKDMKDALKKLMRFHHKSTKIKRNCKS

[2] = target: T2, OR1A1 (Homo sapiens, UniProt Q9P1Q5); details: cited from earlier work
T2 sequence (Q9P1Q5 1-309): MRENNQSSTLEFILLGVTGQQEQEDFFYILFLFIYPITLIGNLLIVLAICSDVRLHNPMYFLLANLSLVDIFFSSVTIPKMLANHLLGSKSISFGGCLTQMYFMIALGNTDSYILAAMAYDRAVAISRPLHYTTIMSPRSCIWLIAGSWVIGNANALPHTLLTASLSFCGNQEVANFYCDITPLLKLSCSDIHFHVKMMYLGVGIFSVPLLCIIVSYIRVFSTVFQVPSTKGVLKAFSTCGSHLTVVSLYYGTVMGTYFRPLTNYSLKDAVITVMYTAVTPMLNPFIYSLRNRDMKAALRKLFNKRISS

[3] = Table S2, ref Supplement references [2]-[12] as printed after each odorant name
[4] = Table S1, ref Supplement references [1]-[9] as printed after each odorant name

Molecule	Class (agonist / non-agonist / antagonist / conflicting info.) for OR2W1 [1]	Class (agonist / non-agonist / conflicting info.) for OR1A1 [2]	Class (agonist / non-agonist / antagonist / conflicting info.) for OR2W1 [1, 3]	Class (agonist / non-agonist / conflicting info.) for OR1A1 [2, 4]	Class (agonist / non-agonist / conflicting info.) for OR1A1 ([2]; Table S1, ref Supplement references [1]-[9] as printed after each odorant name, listed as (R)-limonene)
CCCCCCCCC(=O)O [Nonanoic acid]	Agonist	Conflicting info.			
CCCCCCCCCO [Nonanol]			Agonist	Non-agonist	
CCCCCCCC=O [Octanal]			Agonist	Conflicting info.	
CCCCCCCCS [Octanethiol]	Agonist	Conflicting info.			
CCCCCCCC(=O)O [Octanoic acid]	Conflicting info.	Non-agonist			
CCCCCCCCO [Octanol]			Agonist	Conflicting info.	
CCCCCCCCOC(=O)CCCCCCC [Octyl octanoate]			Antagonist	Conflicting info.	
C=C(C)c1ccc(C)cc1 [P,α-Dimethylstyrene]			Agonist	Non-agonist	
O=C(O)C=Cc1ccc(O)cc1 [P-Coumaric acid]			Non-agonist	Non-agonist	
CCCCC=O [Pentanal]			Non-agonist	Non-agonist	
CCCCCO [Pentanol]			Conflicting info.	Conflicting info.	
O=CCc1ccccc1 [Phenyl acetaldehyde]			Non-agonist	Non-agonist	
CC(=O)Oc1ccccc1 [Phenyl acetate]			Non-agonist	Non-agonist	
CC(=O)OCC=C(C)C [Prenyl acetate]			Agonist	Non-agonist	
CCC=O [Propanal]			Conflicting info.	Conflicting info.	
CCC(=O)O [Propionic acid]	Non-agonist	Conflicting info.			
CCCOC(=O)CCC [Propyl butyrate]	Non-agonist	Non-agonist			
CCCSSCCC [Propyl disulfide]			Non-agonist	Non-agonist	
c1ccc2ncccc2c1 [Quinoline]			Non-agonist	Agonist	
C=C(C)[C@H]1CC=C(C)CC1 [R-limonene]			Agonist	Agonist	agonists
CC(C)=CC1CC(C)CCO1 (stereo not drawn) [Rose oxide]			Non-agonist	Non-agonist	
CC1=CCC(C(C)(C)O)CC1 (stereo not drawn) [Terpineol]			Conflicting info.	Conflicting info.	
CC(=O)OC(C)(C)C1CC=C(C)CC1 (stereo not drawn) [Terpinyl acetate]			Conflicting info.	Conflicting info.	

Molecule	Class (agonist / non-agonist / antagonist / conflicting info.) for OR2W1 [1]	Class (agonist / non-agonist / conflicting info.) for OR1A1 [2]	Class (agonist / non-agonist / antagonist / conflicting info.) for OR2W1 [1, 3]	Class (agonist / non-agonist / conflicting info.) for OR1A1 [2, 4]	Class (agonist / non-agonist / conflicting info.) for OR1A1 ([2]; Table S1, ref Supplement references [1]-[9] as printed after each odorant name, listed as (R)-limonene)
CCC(=O)OC(C)(C)C [Tert-Butyl propionate]			Non-agonist	Non-agonist	
SCc1cccs1 [Thenyl mercaptan]			Non-agonist	Non-agonist	
O=C(O)CS [Thioglycolic acid]			Non-agonist	Non-agonist	
C/C=C/c1ccc(OC)cc1 [Trans-anethole]			Agonist	Agonist	
Cc1cnc(C)c(C)n1 [Trimethyl pyrazine]			Non-agonist	Non-agonist	
CCCCC(=O)O [Valeric acid]			Non-agonist	Non-agonist	
COc1cc(C(=O)O)ccc1O [Vanillic acid]			Non-agonist	Non-agonist	
COc1cc(C=O)ccc1O [Vanillin]			Conflicting info.	Non-agonist	
CCCCC/C=C\CCC=O [Z-4-decenal]			Non-agonist	Conflicting info.	
CC(=O)/C=C/C1=C(C)CCCC1(C)C [Β-ionone]			Non-agonist	Non-agonist	
CCC1CCC(=O)O1 (stereo not drawn) [Γ-caprolactone]	Non-agonist	Non-agonist			
(+)-Fenchone			Non-agonist	Non-agonist	
(+)-alpha-Pinene			Non-agonist	Non-agonist	
(+)-beta-Pinene			Non-agonist	Non-agonist	
(-)-Fenchone			Non-agonist	Non-agonist	
(-)-alpha-Terpineol			Non-agonist	Non-agonist	
(S)-(-)-citronellol	Agonist	Agonist			
(S)-(-)-limonene			Agonist	agonists	
Caramel furanone			Non-agonist	Non-agonist	
Coffee difuran			Agonist	Conflicting info.	
Ethyl 3-methylthiopropionate			Non-agonist	Non-agonist	
Isoeugenol	Non-agonist	Non-agonist			
Laevo-arabinose			Non-agonist	Conflicting info.	
